Results on 39 compounds are retold here after patent US7348350B2, “Pyrazolyl biphenyl carboxamides and the use thereof for controlling undesirable microorganisms” (Bayer CropScience AG, priority 2000, dated 2008).

Series [1] in a line: logP by HPLC on reversed-phase column (C 18), EEC Directive 79/831 Annex V.A8. The class given is physicochemical. The following applies: reversed-phase HPLC column (C 18). The method, then:
The logP values given in the Preparation Examples and Tables above were determined in accordance with EEC Directive 79/831 Annex V.A8 by HPLC (High Performance Liquid Chromatography) on a reversed-phase column (C 18). Temperature: 43° C.
In the acidic range, the determination was carried out at pH 2.3 using the mobile phases 0.1% aqueous phosphoric acid and acetonitrile; linear gradient from 10% acetonitrile to 90% acetonitrile (marked ^a) in the Table).
In the neutral range, the determination was carried out at pH 7.5 using the mobile phases 0.01 molar aqueous phosphate buffer solution and acetonitrile; linear gradient from 10% acetonitrile to 90% acetonitrile (marked ^b) in the Table).

In a further series the test system is Sphaerotheca fuiginea. Briefly: Sphaerotheca test (cucumber)/protective. It is filed as in vivo. Particulars: Cucumis sativus, 240 h, protective, application rate 100 g/ha, evaluation 10 days after inoculation, read-out: % efficacy. Here is the method:
(§1) To produce a suitable preparation of active compound, 1 part by weight of active compound is mixed with the stated amounts of solvent and emulsifier, and the concentrate is diluted with water to the desired concentration.
To test for protective activity, young plants are sprayed with the preparation of active compound at the stated application rate. After the spray coating has dried on, the plants are inoculated with an aqueous spore suspension of Sphaerotheca fuiginea. The plants are then placed in a greenhouse at approximately 23° C. and a relative atmospheric humidity of approximately 70%.
(§2) Evaluation is carried out 10 days after the inoculation. 0% means an efficacy which corresponds to that of the control, whereas an efficacy of 100% means that no infection is observed.

For a further series, the system named is Podosphaera leucotricha. As to the kind of experiment: Podosphaera test (apple)/protective. The class given is in vivo. The following applies: 240 h, protective, application rate 100 g/ha, evaluation 10 days after inoculation, read-out: % efficacy. Here is the method: as §1
To test for protective activity, young plants are sprayed with the preparation of active compound at the stated application rate. After the spray coating has dried on, the plants are inoculated with an aqueous spore suspension of the apple mildew pathogen Podosphaera leucotricha. The plants are then placed in a greenhouse at approximately 23° C. and a relative atmospheric humidity of approximately 70%.
as §2

A further series has as its system Venturia inaequalis. As to the kind of experiment: Venturia test (apple)/protective. The class given is in vivo. Particulars: 288 h, protective, application rate 100 g/ha, evaluation 12 days after inoculation, read-out: % efficacy. The method, then: To produce a suitable preparation of active compound, 1 part by weight of active compound is mixed with the stated amount of solvent and emulsifier, and the concentrate is diluted with water to the desired concentration.
To test for protective activity, young plants are sprayed with the preparation of active compound at the stated application rate. After the spray coating has dried on, the plants are inoculated with an aqueous conidia suspension of the apple scab pathogen Venturia inaequalis and then remain in an incubation cabin at approximately 20° C. and 100% relative atmospheric humidity for 1 day.
The plants are then placed in a greenhouse at approximately 21° C. and a relative atmospheric humidity of approximately 90%.
Evaluation is carried out 12 days after the inoculation. 0% means an efficacy which corresponds to that of the control, whereas an efficacy of 100% means that no infection is observed.

The next series concerns Puccinia recondita. Briefly: Puccinia test (wheat)/protective. Particulars: protective, application rate 250 g/ha, evaluation 10 days after inoculation. It is filed as in vivo. The method, then:
as §1
To test for protective activity, young plants are sprayed with the preparation of active compound at the stated application rate. After the spray coating has dried on, the plants are sprayed with a conidia suspension of Puccinia recondita. The plants remain in an incubation cabin at 20° C. and 100% relative atmospheric humidity for 48 hours.
The plants are then placed in a greenhouse at a temperature of approximately 20° C. and a relative atmospheric humidity of 80% to promote the development of rust pustules.
as §2

Setting [2] is: acidic range, pH 2.3, 0.1% aqueous phosphoric acid and acetonitrile, 43° C. (marked a).

Regarding `CO/N=C/c1cccc(-c2ccc(Cl)cc2NC(=O)c2c(C)nn(C)c2F)c1` [Example 41], the chromatographic logP (commonly a lipophilicity value derived from retention on a column) in series [1] (setting [2]) is 3.89. The same measure, in the same setting: as for `CCC(C)O/N=C(/C)c1ccc(-c2ccccc2NC(=O)c2c(C)nn(C)c2F)cc1` (stereo not shown) [Example 51], the figure is 4.67. In turn, `CO/N=C/c1ccc(-c2c(C)cccc2NC(=O)c2c(C)nn(C)c2F)cc1Cl` [Example 50] returned a chromatographic logP in series [1] (setting [2]) of 3.89. In addition, the pest or weed control at 100 g/ha in the series with Sphaerotheca fuiginea, in the series on Podosphaera leucotricha and in the series on Venturia inaequalis was 100% in each case. Turning to `CO/N=C/c1ccc(-c2ccccc2NC(=O)c2c(C)nn(C)c2F)cc1C` [Example 47], the chromatographic logP in series [1] (setting [2]) was determined as 3.3. Further, the pest or weed control at 100 g/ha in the series on Sphaerotheca fuiginea, in the series with Podosphaera leucotricha and in the series with Venturia inaequalis was 100% each time. `Cc1nn(C)c(F)c1C(=O)Nc1ccccc1-c1ccc(/C=N/OCCCl)cc1` [Example 25]: in series [1] (setting [2]), the chromatographic logP was determined as 3.38.

Regarding `Cc1nn(C)c(F)c1C(=O)Nc1c(F)cc(F)cc1-c1ccc(/C=N/OCc2cccnc2)cc1` [Example 18], the chromatographic logP in series [1] (setting [2]) worked out at 1.69. On to `C/C(=N\OC(C)C)c1ccc(-c2ccccc2NC(=O)c2c(C)nn(C)c2F)cc1` [Example 20], for which the “% efficacy” value in the series on Puccinia recondita worked out at 100%. The pest or weed control at 100 g/ha with Sphaerotheca fuiginea was 77%; in the series on Podosphaera leucotricha, 95%; with Venturia inaequalis, 100%. With `CO/N=C/c1ccc(-c2ccc(C)cc2NC(=O)c2c(C)nn(C)c2F)cc1` [Example 31], the chromatographic logP in series [1] (setting [2]) worked out at 3.34. In series [1] (setting [2]), `Cc1nn(C)c(F)c1C(=O)Nc1ccccc1-c1ccc(/C=N/OCc2cccnc2)cc1` [Example 12] showed a chromatographic logP of 1.75. For the compound `CO/N=C/c1ccc(-c2ccc(F)cc2NC(=O)c2c(C)nn(C)c2F)cc1` [Example 8], the chromatographic logP in series [1] (setting [2]) came out at 3.39. The pest or weed control at 100 g/ha in the series on Podosphaera leucotricha came out at 98%; in the series on Venturia inaequalis it was 99%.

In the case of `CCCCO/N=C\c1ccc(-c2ccccc2NC(=O)c2c(C)nn(C)c2F)cc1` [Example 55], the chromatographic logP in series [1] (setting [2]) amounted to 4.33. Consider `Cc1nn(C)c(F)c1C(=O)Nc1ccccc1-c1ccc(/C=N/OC(C)C)cc1` [Example 23], for which the pest or weed control at 100 g/ha was 95% with Sphaerotheca fuiginea, 100% in the series with Podosphaera leucotricha and 100% with Venturia inaequalis. In series [1] (setting [2]), `CO/N=C/c1ccc(-c2cc(C(F)(F)F)cc(Cl)c2NC(=O)c2c(C)nn(C)c2F)cc1` [Example 40] registered a chromatographic logP of 4.63. In the case of `CO/N=C/c1cccc(-c2cc(C(F)(F)F)cc(Cl)c2NC(=O)c2c(C)nn(C)c2F)c1` [Example 44], the chromatographic logP in series [1] (setting [2]) came to 4.63.

Take `Cc1nn(C)c(F)c1C(=O)Nc1ccccc1-c1ccc(/C=N/OCc2ccccn2)cc1` [Example 17]: the chromatographic logP in series [1] (setting [2]) came out at 1.89. On the same count and under the same terms, the result for `CO/N=C/c1ccc(-c2cc(Cl)ccc2NC(=O)c2c(C)nn(C)c2F)cc1` [Example 28] reads 3.67. On to `CO/N=C/c1ccc(-c2cc(Cl)cc(F)c2NC(=O)c2c(C)nn(C)c2F)cc1` [Example 35], for which the chromatographic logP in series [1] (setting [2]) worked out at 3.11. As for `CCO/N=C(\C)c1ccc(-c2ccccc2NC(=O)c2c(C)nn(C)c2F)cc1` [Example 22], the “% efficacy” value in the series with Puccinia recondita came out at 100%. In addition, the pest or weed control at 100 g/ha amounted to 95% in the series with Sphaerotheca fuiginea, 99% in the series with Podosphaera leucotricha and 100% in the series on Venturia inaequalis. On to `CO/N=C/c1ccc(-c2ccc(OC)cc2NC(=O)c2c(C)nn(C)c2F)cc1` [Example 32], for which, in series [1] (setting [2]), the chromatographic logP is 3.1. On the same count and under the same terms, the result for `CO/N=C\c1cc(-c2ccccc2NC(=O)c2c(C)nn(C)c2F)ccc1/C=N/OC` [Example 48] reads 3.25; that for `CO/N=C/c1cccc(-c2cc(OC(F)(F)F)ccc2NC(=O)c2c(C)nn(C)c2F)c1` [Example 43], 4.06. In series [1] (setting [2]), `Cc1nn(C)c(F)c1C(=O)Nc1c(F)cc(F)cc1-c1ccc(/C=N/OCc2ccccn2)cc1` [Example 15] had a chromatographic logP of 1.81. In series [1] (setting [2]), `CO/N=C/c1ccc(-c2ccccc2NC(=O)c2c(C)nn(C)c2F)cc1Cl` [Example 46] yielded a chromatographic logP of 3.47. Besides, the pest or weed control at 100 g/ha with Sphaerotheca fuiginea, in the series on Podosphaera leucotricha and with Venturia inaequalis was 100% in each case.

The compound `CO/N=C/c1ccc(-c2ccccc2NC(=O)c2c(C)nn(C)c2F)cc1OC` [Example 27] had a chromatographic logP in series [1] (setting [2]) of 3.15. In series [1] (setting [2]), `Cc1nn(C)c(F)c1C(=O)Nc1ccccc1-c1ccc(/C=N\O)cc1` [Example 53] gave a chromatographic logP of 2.24. On to `CCO/N=C/c1ccc(-c2cc(F)cc(F)c2NC(=O)c2c(C)nn(C)c2F)cc1` [Example 11], for which, in series [1] (setting [2]), the chromatographic logP was determined as 3.05. The figures for the pest or weed control at 100 g/ha with Sphaerotheca fuiginea, in the series on Podosphaera leucotricha and in the series on Venturia inaequalis were 93%, 100% and 100%, respectively. In series [1] (setting [2]), `CO/N=C/c1ccc(-c2ccccc2NC(=O)c2c(C)nn(C)c2F)c(Cl)c1` [Example 10] showed a chromatographic logP of 3.26. The same measure, in the same setting: the result for `CCO/N=C/c1ccc(-c2ccccc2NC(=O)c2c(C)nn(C)c2F)cc1OC` [Example 38] reads 3.58; that for `CO/N=C/c1ccc(-c2ccc(Cl)cc2NC(=O)c2c(C)nn(C)c2F)cc1` [Example 33], 3.79. In series [1] (setting [2]), `CO/N=C/c1ccc(-c2cc(F)ccc2NC(=O)c2c(C)nn(C)c2F)cc1` [Example 37] came in with a chromatographic logP of 3.01. In addition, the pest or weed control at 100 g/ha with Sphaerotheca fuiginea was found to be 77%; in the series on Podosphaera leucotricha, 100%; in the series with Venturia inaequalis it was 100%. Take `Cc1nn(C)c(F)c1C(=O)Nc1ccccc1-c1ccc(/C=N/OCc2ccncc2)cc1` [Example 16]: in series [1] (setting [2]), the chromatographic logP was found to be 1.72. On to `Cc1nn(C)c(F)c1C(=O)Nc1c(F)cc(F)cc1-c1ccc(/C=N/OCc2ccncc2)cc1` [Example 19], for which the chromatographic logP in series [1] (setting [2]) is 1.6. For `CO/N=C/c1ccc(-c2cc(F)c(F)cc2NC(=O)c2c(C)nn(C)c2F)cc1` [Example 36], the chromatographic logP in series [1] (setting [2]) worked out at 3.48. Same read-out and setting: as for `Cc1nn(C)c(F)c1C(=O)Nc1ccccc1-c1ccc(/C=N/OCc2ccccc2)cc1` [Example 13], the figure is 4.02. For `Cc1nn(C)c(F)c1C(=O)Nc1c(F)cc(F)cc1-c1ccc(/C=N/OCc2ccccc2)cc1` [Example 14], in series [1] (neutral range, pH 7.5, 0.01 molar aqueous phosphate buffer and acetonitrile, 43° C. (marked b)), the chromatographic logP amounted to 3.68. The compound `CO/N=C/c1cccc(-c2ccc(C(F)(F)F)cc2NC(=O)c2c(C)nn(C)c2F)c1` [Example 42] displayed a chromatographic logP in series [1] (setting [2]) of 4.09. The compound `CO/N=C/c1ccc(-c2cc(C)c(F)cc2NC(=O)c2c(C)nn(C)c2F)cc1` [Example 34] registered a chromatographic logP in series [1] (setting [2]) of 3.74. In the case of `CCO/N=C/c1ccc(-c2ccccc2NC(=O)c2c(C)nn(C)c2F)c(C)c1` [Example 39], the chromatographic logP in series [1] (setting [2]) was 3.91. Moreover, the pest or weed control at 100 g/ha with Sphaerotheca fuiginea was found to be 97%; with Podosphaera leucotricha it was 100%; in the series with Venturia inaequalis it was 100%. `CO/N=C/c1ccc(-c2c(C)cccc2NC(=O)c2c(C)nn(C)c2F)cc1` [Example 29] returned a chromatographic logP in series [1] (setting [2]) of 3.39. Besides, the pest or weed control at 100 g/ha in the series with Sphaerotheca fuiginea was determined as 83%; in the series with Podosphaera leucotricha it was 94%; with Venturia inaequalis, 100%.
